The values that follow come from publication PMC9000413, “Isolation and Structural Elucidation of Compounds from Pleiocarpa bicarpellata and Their In Vitro Antiprotozoal Activity” (Molecules, 2022).

Series [1] deals with P. falciparum. Nature of the series: In vitro antiplasmodial assay (P. falciparum NF54, intraerythrocytic). The note with it: for IC50: Plasmodium falciparum, NF54, read-out: IC50 P. falciparum; for selectivity ratio: rat. How it is done:
The in vitro activity was assessed on T. b. rhodesiense (STIB900, bloodstream forms), T. cruzi (Tulahuen C2C4, intracellular amastigotes), L. donovani (MHOM-ET-67/L82, axenically grown amastigotes), P. falciparum (NF54, intraerythrocytic), and L6 cells (rat skeletal myoblasts) as previously described. Results are expressed in µg/mL for extracts and in µM for pure compounds.

Series [2] concerns P. falciparum. Details: method as in PMID 11378289. The note with it: alkaloids from the methanol root extract of P. mutica; cited from earlier work.
The next series concerns L. donovani. Nature of the series: In vitro antileishmanial assay (L. donovani MHOM-ET-67/L82, axenically grown amastigotes). In kind it is cell-based, Leishmania donovani. The following applies: for IC50: Leishmania donovani, pure compounds and reference drug, mean of two independent assays, axenically grown amastigotes.
A short description of series [3]: Cytotoxicity against rat skeletal myoblast L6 cells. The series is classed as cell-based.
Experimental: (§1) The in vitro activity was assessed on T. b. rhodesiense (STIB900, bloodstream forms), T. cruzi (Tulahuen C2C4, intracellular amastigotes), L. donovani (MHOM-ET-67/L82, axenically grown amastigotes), P. falciparum (NF54, intraerythrocytic), and L6 cells (rat skeletal myoblasts) as previously described [42].
Another series relates to P. berghei. Details: method as in PMID 11378289. The following applies: in vivo mouse model, daily doses of 25 mg/kg/day, compared to untreated control mice; cited from earlier work.
The subject of the next series is L. infantum. Details: method as in PMID 25233577. The following applies: cited from earlier work.
Series [4] concerns T. cruzi. Details: method as in PMID 25233577. The note with it: cited from earlier work.
Series [5] concerns T. cruzi. Nature of the series: In vitro antitrypanosomal assay (T. cruzi Tulahuen C2C4, intracellular amastigotes). The series is classed as cell-based. The following applies: Trypanosoma cruzi.
Experimental: as §1
In the next series the test system is T. b. rhodesiense. Nature of the series: In vitro antitrypanosomal assay (T. b. rhodesiense STIB900, bloodstream forms). The note with it: Trypanosoma brucei. In kind it is cell-based.
The test system of series [6] is T. cruzi. Details: method as in PMID 26755152. The following applies: previous study; cited from earlier work.
Setting [7] is: Selectivity index (SI) = IC50 cytotoxicity/IC50 against parasite, L6 cells vs P. falciparum.

Read-outs that look alike come from different tables or passages of the source.

Experimental for L. donovani: as §1
Experimental for T. b. rhodesiense: as §1

On to `CCN(CC)CCCC(C)Nc1ccnc2cc(Cl)ccc12` (stereo not shown) [Chloroquine, reference compound], for which the IC50 in the series with P. falciparum [1] was 0.006 µM.
Consider `COC(=O)[C@@H]1CC23CCCN4CC[C@@]5(c6ccccc6NC15CC2)[C@@H]43` (stereo partly shown) [Compound 2, kopsinine], for which, in the series with P. falciparum [2], the IC50 is more than 200 µM.
Turning to `CC=C1C[N+]2(C)C3CC1C(CO)(C(=O)OC)C2Cc1c3[nH]c2ccccc12` (stereo not shown) [Compound 6, macusine A], the IC50 in the series on P. falciparum [1] is 26.9 µM; with L. donovani, more than 50 µM; in series [3] (L6 cells (rat skeletal myoblasts), pure compounds and reference drug, rat skeletal myoblast L6 cells, mean of two independent assays, read-out: IC50 Cytotoxicity), 272 µM. Also, in the series on P. falciparum [1] (setting [7]), the selectivity ratio was 10.1.
Consider `COC(=O)[C@@H]1CC23CCCN4CC[C@@]5(c6ccccc6N(C(=O)OC)C15CC2)[C@@H]43` (stereo partly shown) [Compound 11, pleiocarpine], for which the IC50 is more than 200 µM in the series on P. falciparum [2], 26.6 µM with P. falciparum [1], more than 50 µM in the series on L. donovani and 156 µM in [3] (rat). In addition, the selectivity ratio in the series on P. falciparum [1] stood at 5.8. Also, in the series with P. berghei, the reduced parasitemia is 28.5%.
As for `CC[C@H]1[C@@H]2CCN3CC[C@@]4(C(=C2C(=O)OC)Nc2ccccc24)[C@@H]13` [Compound 13, tubotaiwine], the “Selectivity index (SI) = IC50 cytotoxicity/IC50 against parasite” value with P. falciparum [1] (L6 cells vs P. falciparum) turned out to be 23.2. In addition, the IC50 is 8.5 µM with P. falciparum [1], 17.3 µM in the series on L. infantum, more than 50 µM with L. donovani and 197 µM in [3] (rat). Also, the selectivity ratio with P. falciparum [1] (setting [7]) came to 23.4. For the same compound, the “activity against T. cruzi” value in the series with T. cruzi [4] was “no activity”.
As for `CCC1C2CCN3CCC4(C(=C2C(=O)OC)Nc2ccccc24)C13` [Compound 15, methyl (7S,15R,20R,21S)-20-ethyl-5,6,14,15,21-hexahydro-15,21-ethanopyrrolo[5,21-d]carbazole-16-carboxylate-methane], the IC50 with T. cruzi [5], in the series with P. falciparum [1], in the series on T. b. rhodesiense and in the series with L. donovani was more than 50 µM throughout.
Consider `C=C[C@H]1[C@H](O[C@@H]2O[C@H](CO)[C@@H](O)[C@H](O)[C@H]2O)OC=C(C(=O)OC)[C@H]1CC(=O)O` [Compound 16, secoxyloganin], for which the 50% inhibitory concentration (IC50) with P. falciparum [1] is more than 50 µM; with T. cruzi [6] it was more than 150 µM; in the series on L. donovani, 25.3 µM; in series [3] (rat), 294 µM. In the series with L. donovani (rat, L6 cells vs L. donovani, read-out: Selectivity index (SI) = IC50 cytotoxicity/IC50 against parasite), the selectivity ratio was determined as 11.6.
As to `CCCCCCCCCCCCCCCCOP(=O)([O-])OCC[N+](C)(C)C` [Miltefosine, reference compound], the IC50 in the series with L. donovani came to 0.554 µM.
For `COc1cc([C@@H]2c3cc4c(cc3[C@H](O)[C@H]3COC(=O)[C@H]23)OCO4)cc(OC)c1OC` [Podophyllotoxin, reference compound], the IC50 in series [3] (pure compounds and reference drug, rat skeletal myoblast L6 cells, mean of two independent assays, read-out: IC50 Cytotoxicity) amounted to 0.027 µM.
Regarding `C/C=C1/CN2CC[C@@]34CN5c6c(cccc6[C@@]67CCN8CCC[C@@]9(CC[C@@]56[C@@H]9C)[C@H]87)[C@@]35[C@@H]2C[C@@H]1[C@@H](C(=O)OC)N5c1ccccc14` [pleiomutinine, reference compound], the IC50 in the series with P. falciparum [2] is 5 µM.

The term IC50 denotes the concentration at which inhibition is half-maximal.
